One series has as its system Leishmania major. Details: species or system balb/c mice. Conditions: mouse, in vivo.
A further series deals with N. gonorrhoea. The format is cell-based, Neisseria gonorrhoea.
The subject of series [1] is Shigella. The format is cell-based, Shigella spp.
Series [2] concerns Shigella. The format is cell-based, Shigella spp. The source holds these as a separate data set.
For another series, the system named is S. epidermidis. The format is cell-based, Staphylococcus epidermidis.
The next series has as its system Archromobacter. The format is cell-based, Achromobacter.
The test system of series [3] is EPEC/ETEC. The format is cell-based, enteropathogenic/enterotoxigenic Escherichia coli.
Another series concerns Tri. violaceum. The format is cell-based, Trichophyton violaceum.
In series [4] the test system is Salmonella. The format is cell-based, Salmonella spp.
Series [5] relates to Pseudomonas. The format is cell-based, Pseudomonas spp.
Another series deals with Ph. verrucose. The format is cell-based, Phialophora verrucose.
The subject of series [6] is EPEC/ETEC. The format is cell-based, enteropathogenic/enterotoxigenic Escherichia coli. The source holds these as a separate data set.
In series [7] the test system is EPEC/ETEC. The format is cell-based, enteropathogenic/enterotoxigenic Escherichia coli. The source holds these as a separate data set.
Series [8] relates to Candida. The format is cell-based, Candida spp.
The test system of series [9] is Pseudomonas. The format is cell-based, Pseudomonas spp. The source holds these as a separate data set.
In series [10] the test system is Salmonella. The format is cell-based, Salmonella spp. The source holds these as a separate data set.
The test system of the next series is Tri. canis. The format is cell-based, Trichophyton canis.
In series [11] the test system is commonly encountered microorganisms. The format is cell-based, bacteria and fungi.
For another series, the system named is E. coli. The format is cell-based.
For a further series, the system named is C. albicans. The format is cell-based, Candida albicans.
The test system of series [12] is Pseudomonas. The format is cell-based, Pseudomonas spp. The source holds these as a separate data set.
Series [13] deals with S. aureus. The format is cell-based, Staphylococcus aureus.
The test system of series [14] is Shigella. The format is cell-based, Shigella spp. The source holds these as a separate data set.
Series [15] has as its system S. aureus. The format is cell-based, Staphylococcus aureus. The source holds these as a separate data set.
The test system of another series is human spermatozoa. The format is cell-based.
The subject of series [16] is EPEC/ETEC. The format is cell-based, enteropathogenic/enterotoxigenic Escherichia coli. The source holds these as a separate data set.
Series [17] concerns Salmonella. The format is cell-based, Salmonella spp. This is another data set of the same source.
The subject of series [18] is Pseudomonas. The format is cell-based, Pseudomonas spp. The source holds these as a separate data set.
For the next series, the system named is lymphocytes. Details: species or system Balb/c mice. Conditions: mouse, in vivo.
The subject of the next series is Leishmania donova. More on the design: species or system Balb/c mice. Conditions: mouse, in vivo.
The test system of a further series is Cryptococcus. The format is cell-based, Cryptoccus spp.
Series [19] has as its system Candida. The format is cell-based, Candida spp. The source holds these as a separate data set.
Series [20] has as its system Shigella. The format is cell-based, Shigella spp. This is another data set of the same source.
Series [21] relates to Candida. The format is cell-based, Candida spp. This is another data set of the same source.
Series [22] deals with S. aureus. The format is cell-based, Staphylococcus aureus. The source holds these as a separate data set.
Series [23] concerns S. aureus. The format is cell-based, Staphylococcus aureus. The source holds these as a separate data set.
A further series has as its system Penicillium. The format is cell-based, Penicillium spp.
The test system of series [24] is Salmonella. The format is cell-based, Salmonella spp. The source holds these as a separate data set.
Another series has as its system Kiebisella. The format is cell-based, Klebsiella spp.
Series [25] relates to Myeloma cell line (×63 balb/c line). The format is cell-based, balb/c (mouse).
The conditions of series [26]: rabbit, in vivo.
Description: Six healthy New Zealand White rabbits were selected for study. The rabbits' eyes were judged free of irritation prior to the study by examining with a pen light and under UV light after installation of 2% fluorescein stain. A 1% solution of the trioxolane or diperoxide derivative of linalool was prepared in isopropyl myristate. A 0.1 ml portion of this test solution was instilled into the lower conjunctival sac of one eye of each rabbit. The lids were held closed for one second. The opposite eye of each rabbit received 0.1 ml of the isopropyl myristate, as control. […] At 24, 48, and 72 hours post dosing, the eyes were examined with a pen light and re-examined with UV light following fluorescein staining of the cornea.

Values after ≈ are worked out from the molar mass of the structure shown. Like-named read-outs stand apart in the source and are kept apart here. Where only a bound is given, the exact number is not on record here.

On to `O.O.O.O.O.O.O.O.O.O=C([O-])[C@@H]1[O][Sb](=[O])([O][Sb]2(=[O])[O][C@H]([C@H](O)CO)[C@H](O)[C@H](C(=O)[O-])[O]2)[O][C@H]([C@H](O)CO)[C@@H]1O.[Na+].[Na+].[Na+]` (some centres unmarked) [Pentostam, reference compound], for which, in the series with Leishmania major (ip), the “Dead, Day 14” value was 1 dead; the “Lesions, Day 0” value is “Large lesions”; the “Lesions, Day 14” value was “Large lesions breaking”.

Regarding `CCC1OOC(CCO)O1` (stereo not drawn) [Trioxolane derivative of cis 3-hexene-1-ol], in the series on Leishmania major, the “Death, Day 14” value was “No death”. The “General health, Day 14” value in the series with Leishmania major is “Animals healthy and active”. Moreover, the “Lesions, Day 0” value in the series on Leishmania major and in the series with Leishmania major (ip) was “Large lesions” in each case. In addition, the “Lesions, Day 14” value with Leishmania major was “Lesions small and dry”; in the series on Leishmania major (ip), “Lesions scabbed”. Besides, in the series on Leishmania major (ip), the “Dead, Day 14” value is listed as 2 dead. Besides, the “Palate involvement, Day 14” value in the series on Leishmania major (ip) turned out to be 2. In addition, the MIC (as a rule, the least concentration at which growth counts as inhibited) in the series on N. gonorrhoea was 3.5 µg/mL (≈ 23.6 µM); against S. epidermidis, 25 µg/mL (≈ 169 µM); in the series with Archromobacter it was 60 µg/mL (≈ 405 µM); with Tri. violaceum it was 150 µg/mL (≈ 1010 µM); in the series with Salmonella [4], 7 µg/mL (≈ 47.2 µM); against Ph. verrucose, 150 µg/mL (≈ 1010 µM). The MIC in the series with EPEC/ETEC [6] stood at 250 µg/mL (≈ 1690 µM); against Pseudomonas [9], 7 µg/mL (≈ 47.2 µM); against Tri. canis, 150 µg/mL (≈ 1010 µM); against E. coli, 120 µg/mL (≈ 810 µM); in the series on C. albicans it was 31 µg/mL (≈ 209 µM); in the series on Shigella [14] it was 250 µg/mL (≈ 1690 µM). Also, the MIC in the series with Cryptococcus was found to be 15 µg/mL (≈ 101 µM); against S. aureus [22] it was 250 µg/mL (≈ 1690 µM); against Penicillium, 310 µg/mL (≈ 2090 µM); with Kiebisella, 7 µg/mL (≈ 47.2 µM). For the same molecule, the “lowest concentration inhibiting at least one isolate” value with N. gonorrhoea was 0.0019 mg/mL; in the series with S. epidermidis it was 0.031 mg/mL; in the series on S. aureus [22], 0.031 mg/mL. For the same molecule, the MIC agar in the series with Shigella [1] turned out to be 7 µg/mL (≈ 47.2 µM); against Candida [8], 31 µg/mL (≈ 209 µM); in the series with S. aureus [13], 120 µg/mL (≈ 810 µM); against EPEC/ETEC [16], 31 µg/mL (≈ 209 µM); against Pseudomonas [18] it was 7 µg/mL (≈ 47.2 µM); in the series with Salmonella [24], 7 µg/mL (≈ 47.2 µM). Moreover, the MIC broth in the series on Shigella [2] was 620 µg/mL (≈ 4180 µM); with Pseudomonas [5], 620 µg/mL (≈ 4180 µM); in the series with EPEC/ETEC [7], 620 µg/mL (≈ 4180 µM); with Salmonella [10], 150 µg/mL (≈ 1010 µM); in the series on Candida [21] it was 310 µg/mL (≈ 2090 µM); in the series with S. aureus [23], 620 µg/mL (≈ 4180 µM). The MBC in the series with EPEC/ETEC [3] was found to be 1250 µg/mL (≈ 8440 µM); against Pseudomonas [12] it was 1250 µg/mL (≈ 8440 µM); with S. aureus [15] it was 1250 µg/mL (≈ 8440 µM); with Salmonella [17], 2500 µg/mL (≈ 16900 µM); against Candida [19], 1250 µg/mL (≈ 8440 µM); in the series with Shigella [20], 1250 µg/mL (≈ 8440 µM). The “Activity compared with Geraniol trioxolane” value in [11] is on record as “more active than Geraniol trioxolane”. For the same molecule, in series [11], the “Activity compared with conventional drugs” value is given as “more active than conventional drugs”. The “Effect of water on direct bioactivity” value in series [11] was “significantly reduces the direct bioactivity”. The “Time to kill human spermatozoa” value in the series with human spermatozoa is not above 1 min. In the series on lymphocytes, the “New clones of lymphocytes in bone marrow” value is “increase in new clones of lymphocytes”. Besides, the “Clearing parasites from the viscera” value in the series on Leishmania donova was “perform better than Pentostam”. In addition, the “Time to kill myeloma cell line” value in series [25] is not above 48 h.

On to linalool trioxolane, for which the Ocular irritation entry in [26] is on record as “non-irritant to ocular tissues of the rabbit”.
